Experimental data: PubChem BioAssay AID328 (DTP/NCI, 2004)
Several values for one entry are separate records, joined by “and”; a condition that tells them apart may be missing. Equal values may be shown once. Toxic doses and inconclusive results are not listed.

System: BDF1 mice, P388 leukemia ip, median survival T/C
Assay: NCI In Vivo Anticancer Drug Screen. Data for tumor model P388 Leukemia (intraperitoneal) in B6D2F1 (BDF1) mice
Details: endpoint: median survival time, higher = longer survival
How it was run: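 Mice carrying the transplantable tumour receive compound or vehicle. Survival is followed in each arm, and the treated measure is divided by the vehicle measure.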

COc1cc2cc3c4cc(OC)c(OC)cc4cc[n+]3c(C)c2cc1OC
T/C (dose: 8.0 mg/kg/injection, schedule: Q03HX024 (ip), vehicle: saline): 150 % of control | T/C (dose: 12.5 mg/kg/injection, schedule: Q01DX009 (ip), vehicle: Klucel (hydroxypropylcellulose) (HPC)): 105 % of control | T/C (dose: 12.5 mg/kg/injection, schedule: Q01DX009 (ip), vehicle: saline): 165 % of control | T/C (dose: 12.5 mg/kg/injection, schedule: Q01DX009 (ip), vehicle: water): 195 % of control | T/C (dose: 25.0 mg/kg/injection, schedule: Q01DX009 (ip), vehicle: water): 195 % of control | T/C (dose: 25.0 mg/kg/injection, schedule: Q04DX003 (ip), vehicle: water): 170 % of control | T/C (dose: 32.0 mg/kg/injection, schedule: Q03HX008 (ip), vehicle: saline): 154 % of control | T/C (dose: 32.0 mg/kg/injection, schedule: Q03HX024 (ip), vehicle: saline): 168 % of control | T/C (dose: 37.5 mg/kg/injection, schedule: Q01DX001 (ip), vehicle: saline): 154 % of control | T/C (dose: 37.5 mg/kg/injection, schedule: Q01DX009 (ip), vehicle: saline): 162 % of control | T/C (dose: 50.0 mg/kg/injection, schedule: Q01DX009 (ip), vehicle: saline): 172 % of control and 181 % of control and 184 % of control | T/C (dose: 50.0 mg/kg/injection, schedule: Q01DX009 (ip), vehicle: water): 190 % of control | T/C (dose: 50.0 mg/kg/injection, schedule: Q04DX003 (ip), vehicle: water): 190 % of control | T/C (dose: 64.0 mg/kg/injection, schedule: Q01DX009 (ip), vehicle: saline): 159 % of control | T/C (dose: 64.0 mg/kg/injection, schedule: Q01DX009 (sc), vehicle: saline): 100 % of control | T/C (dose: 64.0 mg/kg/injection, schedule: Q03HX024 (ip), vehicle: saline): 163 % of control | T/C (dose: 75.0 mg/kg/injection, schedule: Q01DX001 (ip), vehicle: saline): 158 % of control | T/C (dose: 75.0 mg/kg/injection, schedule: Q01DX009 (ip), vehicle: saline): 183 % of control | T/C (dose: 75.0 mg/kg/injection, schedule: Q04DX003 (ip), vehicle: saline): 150 % of control | T/C (dose: 100.0 mg/kg/injection, schedule: Q01DX001 (ip), vehicle: water): 195 % of control | T/C (dose: 100.0 mg/kg/injection, schedule: Q01DX009 (ip), vehicle: Klucel (hydroxypropylcellulose) (HPC)): 170 % of control | T/C (dose: 100.0 mg/kg/injection, schedule: Q01DX009 (ip), vehicle: saline with Tween-80): 159 % of control and 177 % of control and 195 % of control | T/C (dose: 100.0 mg/kg/injection, schedule: Q01DX009 (ip), vehicle: saline): 172 % of control and 195 % of control | T/C (dose: 100.0 mg/kg/injection, schedule: Q01DX009 (ip), vehicle: water): 210 % of control | T/C (dose: 100.0 mg/kg/injection, schedule: Q04DX002 (ip), vehicle: saline): 163 % of control | T/C (dose: 100.0 mg/kg/injection, schedule: Q04DX003 (ip), vehicle: saline): 153 % of control | T/C (dose: 100.0 mg/kg/injection, schedule: Q04DX003 (ip), vehicle: water): 190 % of control | T/C (dose: 128.0 mg/kg/injection, schedule: Q01DX009 (ip), vehicle: saline): 163 % of control | T/C (dose: 128.0 mg/kg/injection, schedule: Q01DX009 (sc), vehicle: saline): 100 % of control | T/C (dose: 128.0 mg/kg/injection, schedule: Q03HX008 (ip), vehicle: saline): 154 % of control | T/C (dose: 128.0 mg/kg/injection, schedule: Q03HX024 (ip), vehicle: saline): 181 % of control | T/C (dose: 150.0 mg/kg/injection, schedule: Q01DX001 (ip), vehicle: saline): 162 % of control | T/C (dose: 150.0 mg/kg/injection, schedule: Q01DX009 (ip), vehicle: saline): 195 % of control | T/C (dose: 150.0 mg/kg/injection, schedule: Q04DX003 (ip), vehicle: saline): 162 % of control | T/C (dose: 200.0 mg/kg/injection, schedule: Q01DX001 (ip), vehicle: water): 185 % of control | T/C (dose: 200.0 mg/kg/injection, schedule: Q01DX009 (ip), vehicle: saline with Tween-80): 86 % of control and 181 % of control and 218 % of control | T/C (dose: 200.0 mg/kg/injection, schedule: Q01DX009 (ip), vehicle: saline): 172 % of control and 196 % of control and 204 % of control | T/C (dose: 200.0 mg/kg/injection, schedule: Q01DX009 (ip), vehicle: water): 165 % of control | T/C (dose: 200.0 mg/kg/injection, schedule: Q04DX002 (ip), vehicle: saline): 157 % of control | T/C (dose: 200.0 mg/kg/injection, schedule: Q04DX003 (ip), vehicle: saline): 169 % of control and 204 % of control | T/C (dose: 200.0 mg/kg/injection, schedule: Q04DX003 (ip), vehicle: water): 205 % of control | T/C (dose: 256.0 mg/kg/injection, schedule: Q01DX009 (sc), vehicle: saline): 100 % of control | T/C (dose: 256.0 mg/kg/injection, schedule: Q03HX024 (ip), vehicle: saline): 122 % of control | T/C (dose: 256.0 mg/kg/injection, schedule: Q08DX002 (ip), vehicle: saline): 154 % of control | T/C (dose: 300.0 mg/kg/injection, schedule: Q01DX001 (ip), vehicle: saline): 158 % of control | T/C (dose: 300.0 mg/kg/injection, schedule: Q01DX009 (ip), vehicle: saline): 216 % of control | T/C (dose: 300.0 mg/kg/injection, schedule: Q04DX003 (ip), vehicle: saline): 170 % of control | T/C (dose: 400.0 mg/kg/injection, schedule: Q01DX001 (ip), vehicle: water): 170 % of control | T/C (dose: 400.0 mg/kg/injection, schedule: Q01DX009 (ip), vehicle: saline with Tween-80): 181 % of control | T/C (dose: 400.0 mg/kg/injection, schedule: Q01DX009 (ip), vehicle: saline): 90 % of control | T/C (dose: 400.0 mg/kg/injection, schedule: Q04DX002 (ip), vehicle: saline): 163 % of control and 191 % of control | T/C (dose: 400.0 mg/kg/injection, schedule: Q04DX003 (ip), vehicle: saline): 180 % of control and 190 % of control | T/C (dose: 400.0 mg/kg/injection, schedule: Q04DX003 (ip), vehicle: water): 240 % of control | T/C (dose: 512.0 mg/kg/injection, schedule: Q01DX001 (ip), vehicle: saline): 163 % of control | T/C (dose: 512.0 mg/kg/injection, schedule: Q01DX009 (sc), vehicle: saline): 109 % of control | T/C (dose: 512.0 mg/kg/injection, schedule: Q08DX002 (ip), vehicle: saline): 159 % of control | T/C (dose: 600.0 mg/kg/injection, schedule: Q01DX001 (ip), vehicle: saline): 200 % of control | T/C (dose: 600.0 mg/kg/injection, schedule: Q01DX009 (ip), vehicle: saline): 116 % of control | T/C (dose: 600.0 mg/kg/injection, schedule: Q04DX003 (ip), vehicle: saline): 170 % of control | T/C (dose: 800.0 mg/kg/injection, schedule: Q04DX003 (ip), vehicle: saline): 181 % of control | T/C (dose: 1024.0 mg/kg/injection, schedule: Q01DX001 (ip), vehicle: saline): 109 % of control | T/C (dose: 1024.0 mg/kg/injection, schedule: Q01DX009 (sc), vehicle: saline): 100 % of control | T/C (dose: 1024.0 mg/kg/injection, schedule: Q08DX002 (ip), vehicle: saline): 177 % of control | T/C (dose: 2048.0 mg/kg/injection, schedule: Q01DX009 (sc), vehicle: saline): 100 % of control | T/C (dose: 2048.0 mg/kg/injection, schedule: Q04DX003 (ip), vehicle: saline): 109 % of control
